One assay relates to LIM1899. Nature of the assay: Cell growth inhibition assay, LIM1899. The assay is classed as cell-based. The following applies: Homo sapiens; LIM1899, colon carcinoma; 72 h viability assay, CellTiterGlo; mean of 3 ± SEM; read-out: IC50 (inhibition of cellular proliferation). The method, then: Cells were plated at a density of between 500 to 5000 cells per well for adherent cell lines depending on doubling time, and 15,000 cells per well for lymphoblastic leukemia cell lines, in a 96-well plate in 200 μl of growth media. Plates were incubated overnight at 37 °C before adding the inhibitors. Inhibitors were serially diluted from the stock solutions in complete medium and added to the cells. […] Cell viability was assessed by the AlamarBlue (Invitrogen) or CellTiterBlue/Glo (Promega) method according to manufacturer’s instructions. The curve fits and IC50 values were generated in PRISM (GraphPad, San Diego, CA).

For the next assay, the system named is CEM. Nature of the assay: Cell growth inhibition assay, CEM. It counts as cell-based. The following applies: Homo sapiens, CCRF-CEM, acute lymphoblastic leukemia, 72 h viability assay, Alamar Blue, mean of 3 ± SEM, read-out: IC50 (inhibition of cellular proliferation). The method, then:
Cells were plated at a density of between 500 to 5000 cells per well for adherent cell lines depending on doubling time, and 15,000 cells per well for lymphoblastic leukemia cell lines, in a 96-well plate in 200 μl of growth media. Plates were incubated overnight at 37 °C before adding the inhibitors. Inhibitors were serially diluted from the stock solutions in complete medium and added to the cells. Incubation in the presence of inhibitors was continued for […]. Cell viability was assessed by the AlamarBlue (Invitrogen) or CellTiterBlue/Glo (Promega) method according to manufacturer’s instructions. The curve fits and IC50 values were generated in PRISM (GraphPad, San Diego, CA).
Parental human lymphoblastic leukemia cells (CEM) and their drug resistant derivatives (dEpoB30 and dEpoB300) were cultured in the presence of increasing amounts of WEHI-7326, paclitaxel or epothilone B. Cell survival was determined as described in Experimental Procedures. Shown are mean of 3 experiments +/- SEM. Dose response curves were fitted in PRISM using non-linear regression (4 parameter logistic) to calculate IC50 values.
A general note: Resazurin is reduced to fluorescent resorufin, in cell work by metabolically active cells.

The test system of a further assay is 134056 HGSOC PDX. The experiment in a line: HGSOC PDX model 134056. The following applies: 134056 platinum-sensitive PDX; 20 mg/kg i.v. biweekly, 6 weeks. The assay is classed as in vivo, NSG mice. The method, then:
Two to three mm ovarian tumor fragments were subcutaneously engrafted in the left flank of NSG mice and monitored by physical palpation for tumor growth and engraftment. Engrafted tumors were measured twice a week using digital Vernier calipers and maximum tumor diameter + perpendicular tumor length were digitally recorded into the Study Director software (v 3.0/4.0 StudyLog). Tumor volume was calculated automatically (tumor volume (mm^3) = 0.5236 x [larger diameter (mm) x smaller diameter (mm)^2]). Mice were randomized to treatment once their tumor volume reach 180–300 mm^3 and tumor measurements were performed twice a week up to 120 days or when the tumor volume reaches 700 mm^3.
Time to progressive disease (PD): Defined as the time (in days) from beginning of treatment to an increase in average tumor volume of >20% from the nadir (taken as the smallest average tumor volume recorded since treatment started or 200 mm^3 if nadir was <200 mm^3 as lesions smaller than this are difficult to measure with accuracy). Median time to harvest (TTH): Defined as the time (in days) from the beginning of treatment to day of harvest at 700 mm^3 and the median TTH was calculated and plotted using Kaplan-Meier curves. Based on ref. [27]. […]

For assay [1], the system named is COG-N-496x neuroblastoma PDX. The experiment in a line: High-risk neuroblastoma PDX COG-N-496x. It counts as in vivo, NSG mice. The following applies: COG-N-496x PDX; 20 mg/kg i.v. twice weekly. The procedure: All animal studies were performed in accordance with the guidelines approved by University of New South Wales Animal Care and Ethics Committee (ACEC 17/53B) and in accordance with the requirements of the Australian Code for the Care and Use of Animals for Scientific Purposes. PDX models COG-N-440x and COG-N-496x were obtained from the Childhood Cancer Repository, Texas Tech University Health Sciences Center in Lubbock, TX, USA. 6–8 week old female NSG mice were engrafted by subcutaneous injection with 1 × 10^6 freshly thawed PDX tumor cells into one flank in a mixture of 100 μl RPMI-1640 and 100 μl Matrigel. Mice were monitored for tumor development three times weekly and tumor size measured using digital Vernier calipers. Treatments commenced when tumors reached 50 mm^3, following randomization into treatment arms. […] Mice were treated with either vincristine (0.5 mg/kg, once weekly i.p. in sterile saline for up to 5 weeks), WEHI-7326 (20 mg/kg; twice weekly i.v. in sterile saline for up to 5 weeks) or vehicle (as for WEHI-7326). For the Th-MYCN transgenic mouse model, spontaneous tumor growth in mice homozygous for the MYCN transgene was assessed by abdominal palpation at least twice a week. Treatments commenced once a small palpable tumor (~5 mm) was detected, following randomization to treatment arms. Mice were euthanized upon detection of an abdominal tumor of ~1 cm in diameter. […]

Molecules are shown by their SMILES.

On to `COc1ccc(CNc2nc(NCc3ccc(CN)cc3)nc(NN3CC(=O)NC3=O)n2)cc1` [WEHI-7326], for which the IC50 in the assay with LIM1899 amounted to 31.3 ± 2.6 nM. Also, the IC50 in the assay on CEM is 3.99 ± 0.04 nM. Also, in the assay with 134056 HGSOC PDX, the “Median time to harvest (TTH)” value came out at 78 days and the “Time to progressive disease (PD)” value amounted to 56 days. Also, in assay [1], the Median survival is 25 days.

(Values after paper PMC7955127, “Preclinical small molecule WEHI-7326 overcomes drug resistance and elicits response in patient-derived xenograft models of human treatment-refractory tumors” (Cell Death & Disease, 2021).)
